Here are results for one compound from PMC5218480 (PLoS ONE, 2017).

For this assay, the system named is MV-4-11 cells. Nature of the assay: Gene expression microarray analysis (Affymetrix PrimeView) and GSEA. In kind it is cell-based, human. The note with it: MV-4-11 cells, 48 hours. Further details: RFU PODN (11730768_x_at) / Fold change /veh PODN (11730768_x_at) / RFU LINC00158 (11744669_a_at) / Fold change /veh LINC00158 (11744669_a_at) / RFU DUSP10 (11751237_a_at) / Fold change /veh DUSP10 (11751237_a_at) / RFU ID3 (11757404_x_at) / Fold change /veh ID3 (11757404_x_at) / RFU PLEKHG5 (11737974_s_at) / Fold change /veh PLEKHG5 (11737974_s_at) / RFU LRRC4B (11730491_at) / Fold change /veh LRRC4B (11730491_at) / RFU GIMAP4 (11747438_a_at) / Fold change /veh GIMAP4 (11747438_a_at) / RFU KRT8 (11758183_x_at) / Fold change /veh KRT8 (11758183_x_at) / RFU CNN1 (11734310_a_at) / Fold change /veh CNN1 (11734310_a_at) / RFU VPS37D (11726825_at) / Fold change /veh VPS37D (11726825_at) / RFU C10orf10 (11716522_x_at) / Fold change /veh C10orf10 (11716522_x_at) / RFU KIR2DL2 /// KIR2DL4 /// KIR2DL5A /// KIR2DL5B /// KIR2DS1 /// KIR2DS2 /// KIR2DS3 /// KIR2DS4 /// KIR3DL3 /// KIR3DL3 /// KIR3DS1 (11738374_at) / Fold change /veh KIR2DL2 /// KIR2DL4 /// KIR2DL5A /// KIR2DL5B /// KIR2DS1 /// KIR2DS2 /// KIR2DS3 /// KIR2DS4 /// KIR3DL3 /// KIR3DL3 /// KIR3DS1 (11738374_at) / RFU C1QL1 (11718748_at) / Fold change /veh C1QL1 (11718748_at) / RFU TMPRSS4 (11747572_a_at) / Fold change /veh TMPRSS4 (11747572_a_at) / RFU HAMP (11756126_x_at) / Fold change /veh HAMP (11756126_x_at) / RFU RNFT2 (11725882_a_at) / Fold change /veh RNFT2 (11725882_a_at) / RFU NR4A2 (11747474_a_at) / Fold change /veh NR4A2 (11747474_a_at) / RFU ABCC12 (11746883_a_at) / Fold change /veh ABCC12 (11746883_a_at) / RFU TMEM136 (11760407_x_at) / Fold change /veh TMEM136 (11760407_x_at) / RFU CLDN22 /// WWC2 (11732394_at) / Fold change /veh CLDN22 /// WWC2 (11732394_at) / RFU HLA-DPB1 (11760878_x_at) / Fold change /veh HLA-DPB1 (11760878_x_at) / RFU SPINT1 (11716480_a_at) / Fold change /veh SPINT1 (11716480_a_at) / RFU GAP43 (11754022_s_at) / Fold change /veh GAP43 (11754022_s_at) / RFU A4GNT (11735810_at) / Fold change /veh A4GNT (11735810_at) / RFU PRB3 (11715151_x_at) / Fold change /veh PRB3 (11715151_x_at) / RFU TUBB4B (11761932_at) / Fold change /veh TUBB4B (11761932_at) / RFU CAPN14 (11732068_a_at) / Fold change /veh CAPN14 (11732068_a_at) / RFU TMCC2 (11721928_a_at) / Fold change /veh TMCC2 (11721928_a_at) / RFU IRGQ (11745062_a_at) / Fold change /veh IRGQ (11745062_a_at) / RFU FAM174B (11720279_a_at) / Fold change /veh FAM174B (11720279_a_at) / RFU TMPRSS4 (11748680_a_at) / Fold change /veh TMPRSS4 (11748680_a_at) / RFU FAM212B (11763350_a_at) / Fold change /veh FAM212B (11763350_a_at) / RFU PLEKHG5 (11743358_a_at) / Fold change /veh PLEKHG5 (11743358_a_at) / RFU ZSCAN30 (11745921_a_at) / Fold change /veh ZSCAN30 (11745921_a_at) / RFU CMKLR1 (11741424_a_at) / Fold change /veh CMKLR1 (11741424_a_at) / RFU LOC101060620 /// MAPK8IP1 (11723275_at) / Fold change /veh LOC101060620 /// MAPK8IP1 (11723275_at) / RFU SPTSSB (11747773_x_at) / Fold change /veh SPTSSB (11747773_x_at) / RFU PRSS12 (11739890_at) / Fold change /veh PRSS12 (11739890_at) / RFU BIN1 (11741810_x_at) / Fold change /veh BIN1 (11741810_x_at) / RFU WNT11 (11732464_a_at) / Fold change /veh WNT11 (11732464_a_at) / RFU C10orf10 (11716521_a_at) / Fold change /veh C10orf10 (11716521_a_at) / RFU C5orf56 (11738089_at) / Fold change /veh C5orf56 (11738089_at) / RFU CYB561 (11721691_x_at) / Fold change /veh CYB561 (11721691_x_at) / RFU ANKRD19P (11752326_a_at) / Fold change /veh ANKRD19P (11752326_a_at) / RFU OR2T12 /// OR2T33 /// OR2T8 (11738714_s_at) / Fold change /veh OR2T12 /// OR2T33 /// OR2T8 (11738714_s_at) / RFU VCAN (11748164_a_at) / Fold change /veh VCAN (11748164_a_at) / RFU JSRP1 (11732532_at) / Fold change /veh JSRP1 (11732532_at) / RFU KRTAP10-11 (11738290_x_at) / Fold change /veh KRTAP10-11 (11738290_x_at) / RFU MYO3A (11730013_a_at) / Fold change /veh MYO3A (11730013_a_at) / RFU EBF3 (11725865_a_at) / Fold change /veh EBF3 (11725865_a_at) / RFU CAMK2N1 (11719241_x_at) / Fold change /veh CAMK2N1 (11719241_x_at) / RFU C5orf56 (11738088_a_at) / Fold change /veh C5orf56 (11738088_a_at) / RFU OLFML3 (11715873_a_at) / Fold change /veh OLFML3 (11715873_a_at) / RFU LOC100653217 /// NTM (11731650_a_at) / Fold change /veh LOC100653217 /// NTM (11731650_a_at) / RFU MAPK11 (11762145_a_at) / Fold change /veh MAPK11 (11762145_a_at) / RFU FIZ1 (11724087_x_at) / Fold change /veh FIZ1 (11724087_x_at) / RFU OASL (11726364_x_at) / Fold change /veh OASL (11726364_x_at) / RFU SOX15 (11748057_x_at) / Fold change /veh SOX15 (11748057_x_at) / RFU CD79A (11719716_a_at) / Fold change /veh CD79A (11719716_a_at) / RFU HIST1H1D (11736915_at) / Fold change /veh HIST1H1D (11736915_at) / RFU CASKIN2 (11723855_a_at) / Fold change /veh CASKIN2 (11723855_a_at) / RFU LOC730098 (11760151_x_at) / Fold change /veh LOC730098 (11760151_x_at) / RFU OR4N2 (11742367_at) / Fold change /veh OR4N2 (11742367_at) / RFU PRRT2 (11749266_a_at) / Fold change /veh PRRT2 (11749266_a_at) / RFU SNX32 (11753110_a_at) / Fold change /veh SNX32 (11753110_a_at) / RFU CDHR5 (11726645_a_at) / Fold change /veh CDHR5 (11726645_a_at) / RFU RCAN1 (11760418_a_at) / Fold change /veh RCAN1 (11760418_a_at) / RFU FAM167A (11723789_a_at) / Fold change /veh FAM167A (11723789_a_at) / RFU FAM26E (11764081_at) / Fold change /veh FAM26E (11764081_at) / RFU ISYNA1 (11749810_s_at) / Fold change /veh ISYNA1 (11749810_s_at) / RFU ACY1 (11761880_at) / Fold change /veh ACY1 (11761880_at) / RFU 11764098_at / Fold change /veh 11764098_at / RFU SAMD14 (11745864_x_at) / Fold change /veh SAMD14 (11745864_x_at) / RFU NPB (11741838_a_at) / Fold change /veh NPB (11741838_a_at) / RFU TMPRSS6 (11731388_a_at) / Fold change /veh TMPRSS6 (11731388_a_at) / RFU KRTAP10-2 (11738614_at) / Fold change /veh KRTAP10-2 (11738614_at) / RFU ARHGAP8 /// PRR5-ARHGAP8 (11727945_x_at) / Fold change /veh ARHGAP8 /// PRR5-ARHGAP8 (11727945_x_at) / RFU KRTAP5-7 /// NADSYN1 (11734609_at) / Fold change /veh KRTAP5-7 /// NADSYN1 (11734609_at) / RFU RASL12 (11751679_a_at) / Fold change /veh RASL12 (11751679_a_at) / RFU CDKN2B (11736163_a_at) / Fold change /veh CDKN2B (11736163_a_at) / RFU PRF1 (11729649_at) / Fold change /veh PRF1 (11729649_at) / RFU, ZNF638 /// ZNF638-IT1 / Fold change vs veh, ZNF638 /// ZNF638-IT1 / RFU, PANK3 / Fold change vs veh, PANK3 / RFU, SH3YL1 / Fold change vs veh, SH3YL1 / RFU, ZEB2 / Fold change vs veh, ZEB2 / RFU, NRIP1 / Fold change vs veh, NRIP1 / RFU, PTTG1IP / Fold change vs veh, PTTG1IP / RFU, CAPN2 / Fold change vs veh, CAPN2 / RFU, MED14 / Fold change vs veh, MED14 / RFU, SNORA58 / Fold change vs veh, SNORA58 / RFU, C1orf63 / Fold change vs veh, C1orf63 / RFU, LRRFIP1 / Fold change vs veh, LRRFIP1 / RFU, NDUFAF7 / Fold change vs veh, NDUFAF7 / RFU, SLC12A2 / Fold change vs veh, SLC12A2 / RFU, IBTK / Fold change vs veh, IBTK / RFU, ESF1 / Fold change vs veh, ESF1 / Fold change vs veh, TMEM50B / RFU, TAOK1 / Fold change vs veh, TAOK1 / RFU, ACBD3 / Fold change vs veh, ACBD3 / RFU, TMA16 / Fold change vs veh, TMA16 / RFU, RWDD3 / Fold change vs veh, RWDD3 / RFU, BCAT1 / Fold change vs veh, BCAT1 / RFU, EDEM3 / Fold change vs veh, EDEM3 / RFU, TMEM33 / Fold change vs veh, TMEM33 / RFU, WDR75 / Fold change vs veh, WDR75 / RFU, AHCTF1 / Fold change vs veh, AHCTF1 / RFU, TFRC / Fold change vs veh, TFRC / RFU, ZDHHC17 / Fold change vs veh, ZDHHC17 / RFU, NOM1 / Fold change vs veh, NOM1 / RFU, ARL8B / Fold change vs veh, ARL8B / RFU, ZBTB11 / Fold change vs veh, ZBTB11 / RFU, TAMM41 / Fold change vs veh, TAMM41 / RFU, KIAA1704 /// LOC100996395 / Fold change vs veh, KIAA1704 /// LOC100996395 / RFU, ING1 / Fold change vs veh, ING1 / RFU, TRMT61B / Fold change vs veh, TRMT61B / RFU, FUBP3 / Fold change vs veh, FUBP3 / RFU, TP53 / Fold change vs veh, TP53 / RFU, TNKS2 / Fold change vs veh, TNKS2 / RFU, ZFP14 / Fold change vs veh, ZFP14 / RFU, ACTR2 / Fold change vs veh, ACTR2 / RFU, PPP3R1 / Fold change vs veh, PPP3R1 / RFU, PIK3R1 / Fold change vs veh, PIK3R1 / RFU, HNRNPA1 / Fold change vs veh, HNRNPA1 / RFU, RNF170 / Fold change vs veh, RNF170 / RFU, ZNF28 / Fold change vs veh, ZNF28 / RFU, RNGTT / Fold change vs veh, RNGTT / RFU, OGT / Fold change vs veh, OGT / RFU, BRD1 / Fold change vs veh, BRD1 / RFU, MARS / Fold change vs veh, MARS / RFU, ZNF655 / Fold change vs veh, ZNF655 / RFU, FAHD1 / Fold change vs veh, FAHD1 / RFU, BDP1 / Fold change vs veh, BDP1 / RFU, LRRCC1 / Fold change vs veh, LRRCC1 / RFU, ARID1A / Fold change vs veh, ARID1A / RFU, ZNF146 / Fold change vs veh, ZNF146 / RFU, ZNF330 / Fold change vs veh, ZNF330 / RFU, GPN3 / Fold change vs veh, GPN3 / RFU, C9orf123 / Fold change vs veh, C9orf123 / RFU, N4BP2L2 / Fold change vs veh, N4BP2L2 / RFU, ARFIP1 / Fold change vs veh, ARFIP1 / RFU, FAM179B / Fold change vs veh, FAM179B / RFU, BCL10 / Fold change vs veh, BCL10 / RFU, UHRF1BP1L / Fold change vs veh, UHRF1BP1L / RFU, BET1 / Fold change vs veh, BET1 / RFU, CNOT2 / Fold change vs veh, CNOT2 / RFU, ZNF268 / Fold change vs veh, ZNF268 / Fold change vs veh, ZNF507 / RFU, DGCR2 / Fold change vs veh, DGCR2 / RFU, WDSUB1 / Fold change vs veh, WDSUB1 / Fold change vs veh, HSP90B1 /// MIR3652 / RFU, ADSS / Fold change vs veh, ADSS / RFU, GK / Fold change vs veh, GK / RFU, ZNF148 / Fold change vs veh, ZNF148 / RFU, TAF9 / Fold change vs veh, TAF9 / RFU, SLC1A5 / Fold change vs veh, SLC1A5 / RFU, SLMO2 / Fold change vs veh, SLMO2 / RFU, ABCC4 / Fold change vs veh, ABCC4 / RFU, LOC101060439 /// RAP1B / Fold change vs veh, LOC101060439 /// RAP1B / RFU, RFX7 / Fold change vs veh, RFX7 / RFU, GTPBP10 / Fold change vs veh, GTPBP10 / RFU, CNEP1R1 / Fold change vs veh, CNEP1R1 / RFU, BIVM-ERCC5 /// ERCC5 / Fold change vs veh, BIVM-ERCC5 /// ERCC5 / RFU, ILF3 / Fold change vs veh, ILF3 / RFU 11762660_at / Fold change /veh 11762660_at / RFU VCAN (11757783_s_at) / Fold change /veh VCAN (11757783_s_at) / RFU DDX43 (11728927_at) / Fold change /veh DDX43 (11728927_at) / RFU KRT8 (11758188_x_at) / Fold change /veh KRT8 (11758188_x_at) / RFU NKD1 (11759106_at) / Fold change /veh NKD1 (11759106_at) / RFU SRD5A1 (11742802_a_at) / Fold change /veh SRD5A1 (11742802_a_at) / RFU TPSAB1 /// TPSB2 (11721975_s_at) / Fold change /veh TPSAB1 /// TPSB2 (11721975_s_at) / RFU GSTM3 (11746129_a_at) / Fold change /veh GSTM3 (11746129_a_at) / RFU IL23R (11737362_x_at) / Fold change /veh IL23R (11737362_x_at) / RFU TMEM51 (11727254_a_at) / Fold change /veh TMEM51 (11727254_a_at) / RFU PIWIL2 (11732686_x_at) / Fold change /veh PIWIL2 (11732686_x_at) / RFU ORM1 (11744905_x_at) / Fold change /veh ORM1 (11744905_x_at) / RFU CCDC152 (11743942_at) / Fold change /veh CCDC152 (11743942_at) / RFU ECM1 (11717891_a_at) / Fold change /veh ECM1 (11717891_a_at) / RFU IL23R (11748794_a_at) / Fold change /veh IL23R (11748794_a_at) / RFU TNFAIP8L3 (11732012_x_at) / Fold change /veh TNFAIP8L3 (11732012_x_at) / RFU MBOAT4 (11741988_at) / Fold change /veh MBOAT4 (11741988_at) / RFU 11764193_at / Fold change /veh 11764193_at / RFU TMEM53 (11763286_at) / Fold change /veh TMEM53 (11763286_at) / RFU MAGEB2 (11727129_at) / Fold change /veh MAGEB2 (11727129_at) / RFU TMEM200A (11744735_a_at) / Fold change /veh TMEM200A (11744735_a_at) / RFU CCDC152 (11751479_a_at) / Fold change /veh CCDC152 (11751479_a_at) / RFU FAM211A (11726209_a_at) / Fold change /veh FAM211A (11726209_a_at) / RFU RGS16 (11746705_a_at) / Fold change /veh RGS16 (11746705_a_at) / RFU VCAN (11755009_s_at) / Fold change /veh VCAN (11755009_s_at) / RFU RHOB (11743442_s_at) / Fold change /veh RHOB (11743442_s_at) / RFU RGS16 (11720943_a_at) / Fold change /veh RGS16 (11720943_a_at) / RFU RGS16 (11720944_at) / Fold change /veh RGS16 (11720944_at) / RFU, VPS4B / Fold change vs veh, VPS4B / RFU, CREB1 / Fold change vs veh, CREB1 / RFU, DNAJC13 / Fold change vs veh, DNAJC13 / RFU, GNAQ / Fold change vs veh, GNAQ / RFU, CDK5R1 / Fold change vs veh, CDK5R1 / RFU, ZRANB3 / Fold change vs veh, ZRANB3 / RFU, CUL4A / Fold change vs veh, CUL4A / RFU, CCNY / Fold change vs veh, CCNY / RFU, UFL1 / Fold change vs veh, UFL1 / RFU, COG3 / Fold change vs veh, COG3 / RFU, DIAPH2 / Fold change vs veh, DIAPH2 / RFU, SKA2 / Fold change vs veh, SKA2 / RFU, AFF3 / Fold change vs veh, AFF3 / RFU, LMF1 / Fold change vs veh, LMF1 / RFU, IPO11 / Fold change vs veh, IPO11 / RFU, DFFB / Fold change vs veh, DFFB / RFU, FOXP1 / Fold change vs veh, FOXP1 / RFU, CARD8 / Fold change vs veh, CARD8 / RFU, STRN3 / Fold change vs veh, STRN3 / RFU, ADK / Fold change vs veh, ADK / RFU, RASSF2 / Fold change vs veh, RASSF2 / RFU, WIPF1 / Fold change vs veh, WIPF1 / RFU, LARP1B / Fold change vs veh, LARP1B / RFU, RASA1 / Fold change vs veh, RASA1 / RFU, RB1 / Fold change vs veh, RB1 / RFU, PPFIA1 / Fold change vs veh, PPFIA1 / RFU, MAT2A / Fold change vs veh, MAT2A / RFU, CCT5 / Fold change vs veh, CCT5 / RFU, WDR92 / Fold change vs veh, WDR92 / RFU, CUX1 / Fold change vs veh, CUX1 / RFU, TTC7A / Fold change vs veh, TTC7A / RFU, TMEM135 / Fold change vs veh, TMEM135 / RFU, DEPTOR / Fold change vs veh, DEPTOR / RFU, CPM / Fold change vs veh, CPM / RFU, DNAJB6 / Fold change vs veh, DNAJB6 / RFU, CACNA2D3 / Fold change vs veh, CACNA2D3 / RFU, DTX4 / Fold change vs veh, DTX4 / RFU, TFCP2 / Fold change vs veh, TFCP2 / RFU, GMCL1 /// GMCL1P1 / Fold change vs veh, GMCL1 /// GMCL1P1 / RFU, AEBP2 / Fold change vs veh, AEBP2 / RFU, SNHG1 /// SNORD22 /// SNORD25 /// SNORD26 /// SNORD27 /// SNORD28 /// SNORD29 /// SNORD31 / Fold change vs veh, SNHG1 /// SNORD22 /// SNORD25 /// SNORD26 /// SNORD27 /// SNORD28 /// SNORD29 /// SNORD31 / Fold change (Aza/veh), C12orf56 (ProbeSet 11735607_a_at) / Fold change (ACY-1035/veh), C12orf56 (ProbeSet 11735607_a_at) / Fold change (Aza/veh), FGFR1OP (ProbeSet 11751329_s_at) / Fold change (ACY-1035/veh), FGFR1OP (ProbeSet 11751329_s_at) / Fold change (Aza/veh), VPS36 (ProbeSet 11739960_a_at) / Fold change (ACY-1035/veh), VPS36 (ProbeSet 11739960_a_at) / RFU SYPL1 (11715823_x_at) / Fold change /veh SYPL1 (11715823_x_at) / RFU IGFBP7 (11715501_s_at) / Fold change /veh IGFBP7 (11715501_s_at) / RFU REEP3 (11722064_at) / Fold change /veh REEP3 (11722064_at) / RFU IGLL1 (11728026_x_at) / Fold change /veh IGLL1 (11728026_x_at): dose or concentration left out as unconfirmed.

For the compound `Nc1ccc(-c2cccs2)cc1NC(=O)c1ccc2c(c1)cc(C1CC1)n2CCN1CCOCC1` [ACY-1035], the “Fold change /veh HIST1H1D (11736915_at)” value is 0.94.
